In US9416114B2, “1,2,4-triazine derivatives for the treatment of viral infections” (CENTRE NATIONAL DE LA RECHERCHE SCIENTIFIQUE (CNRS), priority 2012, dated 2016):
Where two headings read alike, the source gives them in different places.

Key:
Format in all cases: cell-based
human TLR8 = molecular target: T1, human TLR8 (Homo sapiens, UniProt Q9NR97); assay: TLR8 cellular reporter assay (HEK293, NFκB-luc); details: HEK293 transiently transfected with TLR8 and NFκB-luc; 6 hours incubation; lowest effective concentration
T1 construct: expressed in transfected cells; host or cells: HEK293
T1 sequence (Q9NR97 27-1041): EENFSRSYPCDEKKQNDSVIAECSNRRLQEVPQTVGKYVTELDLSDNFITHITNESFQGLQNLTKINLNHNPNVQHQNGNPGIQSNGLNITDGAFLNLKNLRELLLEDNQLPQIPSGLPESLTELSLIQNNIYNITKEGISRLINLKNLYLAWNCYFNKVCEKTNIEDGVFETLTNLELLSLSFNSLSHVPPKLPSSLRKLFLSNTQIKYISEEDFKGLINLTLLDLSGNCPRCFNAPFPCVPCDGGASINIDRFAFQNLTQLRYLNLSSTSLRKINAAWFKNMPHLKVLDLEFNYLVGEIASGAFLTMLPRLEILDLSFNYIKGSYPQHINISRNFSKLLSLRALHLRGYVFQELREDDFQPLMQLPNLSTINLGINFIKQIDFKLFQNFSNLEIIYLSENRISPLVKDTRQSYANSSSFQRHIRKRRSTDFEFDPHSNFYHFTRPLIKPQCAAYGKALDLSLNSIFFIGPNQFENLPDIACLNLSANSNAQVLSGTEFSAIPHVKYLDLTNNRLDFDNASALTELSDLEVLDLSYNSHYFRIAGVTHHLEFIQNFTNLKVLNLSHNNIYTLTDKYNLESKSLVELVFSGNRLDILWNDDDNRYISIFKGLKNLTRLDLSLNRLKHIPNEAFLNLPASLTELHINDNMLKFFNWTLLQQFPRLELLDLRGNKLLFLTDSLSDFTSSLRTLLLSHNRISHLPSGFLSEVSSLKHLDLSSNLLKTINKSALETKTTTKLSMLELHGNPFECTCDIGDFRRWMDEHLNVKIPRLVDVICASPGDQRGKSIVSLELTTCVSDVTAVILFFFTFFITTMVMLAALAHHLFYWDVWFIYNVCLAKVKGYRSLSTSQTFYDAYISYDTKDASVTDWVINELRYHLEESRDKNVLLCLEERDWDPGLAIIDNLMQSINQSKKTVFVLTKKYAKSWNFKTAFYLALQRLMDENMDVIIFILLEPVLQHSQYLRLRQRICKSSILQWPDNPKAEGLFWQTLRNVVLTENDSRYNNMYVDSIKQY
Procedure: (§1) The ability of compounds to activate human TLR7 and/or TLR8 was assessed in a cellular reporter assay using HEK293 cells transiently transfected with a TLR7 or TLR8 expression vector and NFκB-luc reporter construct.
(§2) Briefly, HEK293 cells were grown in culture medium (DMEM supplemented with 10% FCS and 2 mM Glutamine). For transfection of cells in 10 cm dishes, cells were detached with Trypsin-EDTA, transfected with a mix of CMV-TLR7 or TLR8 plasmid (750 ng), NFκB-luc plasmid (375 ng) and a transfection reagent and incubated overnight at 37° C. in a humidified 5% CO2 atmosphere. […] Thirty microliters of cells were then dispensed into each well in 384-well plates, where 10 μL of compound in 4% DMSO was already present. Following 6 hours incubation at 37° C., 5% CO2, the luciferase activity was determined by adding 15 μL of Steady Lite Plus substrate (Perkin Elmer) to each well and readout performed on a ViewLux ultraHTS microplate imager (Perkin Elmer). Dose response curves were generated from measurements performed in quadruplicates.

human TLR7 = molecular target: T2, human TLR7 (Homo sapiens, UniProt Q9NYK1); assay: TLR7 cellular reporter assay (HEK293, NFκB-luc); details: HEK293 transiently transfected with TLR7 and NFκB-luc; 6 hours incubation; lowest effective concentration
T2 construct: expressed in transfected cells; host or cells: HEK293
T2 sequence (Q9NYK1 27-1049): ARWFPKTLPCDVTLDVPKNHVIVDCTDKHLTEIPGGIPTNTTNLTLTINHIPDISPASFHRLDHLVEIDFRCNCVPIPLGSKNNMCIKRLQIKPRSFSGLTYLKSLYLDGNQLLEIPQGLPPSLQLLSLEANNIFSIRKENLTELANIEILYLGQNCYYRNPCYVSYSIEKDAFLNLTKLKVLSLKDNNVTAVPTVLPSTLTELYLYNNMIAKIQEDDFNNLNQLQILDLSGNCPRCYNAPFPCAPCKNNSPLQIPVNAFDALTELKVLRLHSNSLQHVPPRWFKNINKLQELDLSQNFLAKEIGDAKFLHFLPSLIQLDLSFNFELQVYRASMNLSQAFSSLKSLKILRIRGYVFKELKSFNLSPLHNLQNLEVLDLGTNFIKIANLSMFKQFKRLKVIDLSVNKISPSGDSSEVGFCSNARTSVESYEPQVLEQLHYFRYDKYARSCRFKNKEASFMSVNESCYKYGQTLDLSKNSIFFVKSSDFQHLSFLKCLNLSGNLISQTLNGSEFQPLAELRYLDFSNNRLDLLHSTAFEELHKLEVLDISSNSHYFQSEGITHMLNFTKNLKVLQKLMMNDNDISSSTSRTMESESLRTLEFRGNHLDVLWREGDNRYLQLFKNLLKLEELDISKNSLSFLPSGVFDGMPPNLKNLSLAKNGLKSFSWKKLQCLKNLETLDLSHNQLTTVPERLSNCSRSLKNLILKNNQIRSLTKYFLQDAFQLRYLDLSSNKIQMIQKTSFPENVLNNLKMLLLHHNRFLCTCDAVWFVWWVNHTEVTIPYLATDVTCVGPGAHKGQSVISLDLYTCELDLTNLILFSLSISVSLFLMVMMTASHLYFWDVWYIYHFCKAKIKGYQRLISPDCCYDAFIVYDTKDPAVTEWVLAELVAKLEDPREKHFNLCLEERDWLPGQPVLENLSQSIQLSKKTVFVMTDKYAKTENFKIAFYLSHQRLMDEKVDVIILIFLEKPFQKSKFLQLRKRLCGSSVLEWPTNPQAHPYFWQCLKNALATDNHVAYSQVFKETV
Procedure: as §1, §2

[1] = system: interferon-stimulated responsive elements (ISRE); assay: Activation of ISRE promoter elements by conditioned media from PBMC (HEK-ISREluc); details: Homo sapiens, read-out: HEK-ISRE luc (LEC)
Procedure: The potential of compounds to induce IFN-I was also evaluated by measuring the activation of interferon-stimulated responsive elements (ISRE) by conditioned media from PBMC. The ISRE element of sequence […] is highly responsive to the STAT1-STAT2-IRF9 transcription factor, activated upon binding of IFN-I to their receptor IFNAR (Clontech, PT3372-5W). The plasmid pISRE-Luc from Clontech (ref. 631913) contains 5 copies of this ISRE element, followed by the firefly luciferase ORF. A HEK293 cell line stably transfected with pISRE-Luc (HEK-ISREluc) was established to profile of the conditioned PBMC cell culture media.
Briefly, PBMCs were prepared from buffy coats of at least two donors using a standard Ficoll centrifugation protocol. Isolated PBMCs were resuspended in RPMI medium supplemented with 10% human AB serum and 2×10^5 cells/well were dispensed into 384-well plates containing compounds (70 μL total volume). After overnight incubation, 10 μL of supernatant was transferred to 384-well plates containing 5×10^3 HEK-ISREluc cells/well in 30 μL (plated the day before). Following 24 hours of incubation, activation of the ISRE elements was measured by assaying luciferase activity using 40 μL/well Steady Lite Plus substrate (Perkin Elmer) and measured with ViewLux ultraHTS microplate imager (Perkin Elmer). The stimulating activity of each compound on the HEK-ISREluc cells was reported as LEC value, defined as the compound concentration applied to the PBMCs resulting in a luciferase activity at least two fold above the standard deviation of the assay. The LEC in turn indicates the degree of ISRE activation on transfer of a defined amount of PBMC culture medium. Recombinant interferon α-2a (Roferon-A) was used as a standard control compound.

[2] = PBMC conditioned medium transferred to HEK-ISREluc cells, 24 hours, lowest effective concentration

Row | Structure (SMILES) | Human TLR 8 (LEC) (human TLR8) | Human TLR 7 (LEC) (human TLR7) | minimal effective concentration [1, 2] | minimal effective concentration ([1]; PBMC, 24 h)
1 | CCC[C@@H](CCO)Nc1nc(N)nnc1OCc1nccc(OC)c1OC [Compound 8] | 0.56 µM | 0.24 µM | 0.014 µM | –
2 | CCCC[C@@H](CCO)Nc1nc(N)nnc1OC [Compound 12] | – | 7.8 µM | 2.72 µM | –
3 | CCCCNc1nc(N)nnc1OCc1ccccc1 [Compound 15] | 1.93 µM | 2.94 µM | 1.85 µM | –
4 | CCCCNc1nc(N)nnc1OCCCc1ccc(OC)cc1 [Compound 16] | 0.81 µM | 0.38 µM | 0.14 µM | –
5 | CCCCNc1nc(N)nnc1OC [Compound 17] | – | 17.49 µM | 1.02 µM | –
6 | CCCCNc1nc(N)nnc1OC(C)C [Compound 18] | – | 8.27 µM | 0.53 µM | –
7 | CCCCNc1nc(N)nnc1OCc1ccccc1OC [Compound 19] | 0.64 µM | – | 0.43 µM | –
8 | CCCCNc1nc(N)nnc1OCc1ccccc1F [Compound 20] | – | 0.75 µM | – | 0.54 µM
9 | CCCCNc1nc(N)nnc1OCc1cccnc1 [Compound 21] | – | 1.71 µM | – | 0.14 µM
10 | CCCCNc1nc(N)nnc1OCCOC [Compound 22] | 1.0 µM | 4.75 µM | – | 0.41 µM
11 | CCCCNc1nc(N)nnc1OCc1ccccn1 [Compound 23] | – | 0.17 µM | 0.14 µM | –
12 | CCCCNc1nc(N)nnc1OCCCN(C)C [Compound 24] | 0.1 µM | >25 µM | – | 0.17 µM
